Target: recombinant human PCSK9 (Homo sapiens, UniProt Q8NBP7)
Assay: Direct binding measurement by backscatter interferometry
Conditions: 6-point binding curve, ±8 nM, r^2 of 0.86
Description: Direct binding was measured using backscatter interferometry, which has been previously described in “Interferometric detection system and method” (EP 1210581), “Free solution measurement of molecular interactions by backscattering interferometry” (WO 2009039466), “Temperature-stable interferometer” (WO 2009076372), and “Improved event detection for back-scattering interferometry” (WO 2013158300); which are incorporated herein in their entirety by reference.

Sequence of recombinant human PCSK9 (Q8NBP7 153-692): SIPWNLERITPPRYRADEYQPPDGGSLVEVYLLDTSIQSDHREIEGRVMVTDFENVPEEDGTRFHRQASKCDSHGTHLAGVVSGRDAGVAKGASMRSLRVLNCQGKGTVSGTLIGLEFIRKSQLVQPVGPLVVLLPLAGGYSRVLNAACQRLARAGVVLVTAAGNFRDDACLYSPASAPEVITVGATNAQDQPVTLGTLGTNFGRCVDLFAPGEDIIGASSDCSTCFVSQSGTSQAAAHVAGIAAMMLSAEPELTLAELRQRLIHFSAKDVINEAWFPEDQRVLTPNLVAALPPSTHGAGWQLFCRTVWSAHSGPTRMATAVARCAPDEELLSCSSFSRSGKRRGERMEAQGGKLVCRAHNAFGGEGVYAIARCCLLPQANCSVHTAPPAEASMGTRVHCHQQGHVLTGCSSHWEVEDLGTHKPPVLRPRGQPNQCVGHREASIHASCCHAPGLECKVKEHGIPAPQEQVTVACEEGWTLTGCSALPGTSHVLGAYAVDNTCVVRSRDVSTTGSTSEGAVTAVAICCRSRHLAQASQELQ

## C/C(=N\Nc1nnn[nH]1)C(=O)N1CCC(c2ccccc2)CC1 [SRX200, (E)-2-(2-(1H-tetrazol-5-yl)hydrazono)-1-(4-phenylpiperidin-1-yl)propan-1-one]
  Kd: 24 nM

Source: patent publication US11026957B2, “Method to treat lipid dysregulation by modulation of proprotein convertase subtilisin/kexin type 9 (PCSK9) protein activity with small molecule ligands” (SRX CARDIO, LLC, priority 2014, dated 2021)
